Assay results: patent US20070299087A1, “New Compounds 319” (AstraZeneca AB, priority 2006, published 2007)
Where a name gives a salt, the structure may show the parent alone.

Molecular target: T1, human β-Secretase (sBACE-Fc) (Homo sapiens, UniProt P56817)
T1 construct: The soluble part of the human β-Secretase (AA 1-AA 460) was cloned; Fc domain of IgG1 (C); made in house
Experiment: TR-FRET assay (β-secretase enzyme, substrate (Europium)[…](Qsy7))
Assay type: biochemical
Description: The enzyme used in the IGEN Cleavage-, Fluorescent-, TR-FRET- and BiaCore assays is described as follows:
The soluble part of the human β-Secretase (AA 1-AA 460) was cloned into the ASP2-Fc10-1-IRES-GFP-neoK mammalian expression vector. The gene was fused to the Fc domain of IgG1 (affinity tag) and stably cloned into HEK 293 cells. Purified sBACE-Fc is stored in Tris buffer, pH 9.2 and has a purity of 95%.
Enzyme was diluted to 6 μg/mL and the substrate (Europium)[…](Qsy7) to 200 nM in reaction buffer (NaAcetate, chaps, triton x-100, EDTA pH 4.5). Compounds were diluted to the desired concentration in dimethyl sulfoxide (final dimethyl sulfoxide concentration in assay is 5%). The assay was done in a Costar 384 well round bottom, low volume, non-binding surface plate (Corning #3676). Enzyme (9 μL) and 1 μL of compound in dimethyl sulfoxide was added to the plate, mixed and pre-incubated for 10 min. Substrate (10 μL) was added and the reaction proceeded in the dark for 15 min at RT. The reaction was stopped with the addition of 7 μL NaAcetate, pH 9. The fluorescence of the product was measured on a Victor II plate reader with an excitation wavelength of 340 nm and an emission wavelength of 615 nm. […] The dimethyl sulfoxide control defined the 100% activity level and 0% activity was defined by exclusion of the enzyme (using reaction buffer instead).

T1 sequence (P56817 22-460): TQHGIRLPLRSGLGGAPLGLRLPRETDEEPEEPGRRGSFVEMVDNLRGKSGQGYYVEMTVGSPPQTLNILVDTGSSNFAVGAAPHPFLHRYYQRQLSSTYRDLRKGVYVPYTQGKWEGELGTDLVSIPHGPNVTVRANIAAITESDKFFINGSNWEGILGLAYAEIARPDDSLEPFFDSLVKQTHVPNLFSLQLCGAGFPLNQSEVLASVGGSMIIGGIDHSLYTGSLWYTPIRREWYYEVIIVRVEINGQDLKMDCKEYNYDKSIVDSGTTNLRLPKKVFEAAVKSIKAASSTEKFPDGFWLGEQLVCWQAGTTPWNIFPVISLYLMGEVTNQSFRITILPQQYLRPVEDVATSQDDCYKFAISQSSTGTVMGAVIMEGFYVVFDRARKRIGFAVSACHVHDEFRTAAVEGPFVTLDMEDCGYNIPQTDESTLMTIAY

Row | Compound | IC50 [nM]
1 | N#Cc1cccc(-c2cccc(C3(c4ccncc4)N=C(N)N4CCCN=C43)c2)c1 (stereo not shown) [Example 13, 3′-(6-Amino-8-pyridin-4-yl-2,3,4,8-tetrahydroimidazo[1,5-a]pyrimidin-8-yl)-biphenyl-3-carbonitrile hydrochloride] | 353
2 | COc1cccc(-c2cccc(C3(c4ccncc4)N=C(N)N4CCCN=C43)c2)c1 (stereo not shown) [Example 14, 8-(3′-Methoxybiphenyl-3-yl)-8-pyridin-4-yl-2,3,4,8-tetrahydroimidazo[1,5-a]pyrimidin-6-amine 0.25 acetate] | 72
3 | COc1cncc(-c2cccc(C3(c4ccncc4)N=C(N)N4CCCN=C43)c2)c1 (stereo not shown) [Example 15, 8-[3-(5-Methoxypyridin-3-yl)phenyl]-8-pyridin-4-yl-2,3,4,8-tetrahydroimidazo[1,5-a]pyrimidin-6-amine 0.25 acetate] | 117
4 | NC1=NC(c2ccncc2)(c2cccc(-c3cccc(Cl)c3)c2)C2=NCCCN12 (stereo not shown) [Example 16, 8-(3′-Chlorobiphenyl-3-yl)-8-pyridin-4-yl-2,3,4,8-tetrahydroimidazo[1,5-a]pyrimidin-6-amine 0.25 acetate] | 53
5 | NC1=NC(c2ccncc2)(c2cccc(-c3cccnc3F)c2)C2=NCCCN12 (stereo not shown) [Example 17, 8-[3-(2-Fluoropyridin-3-yl)phenyl]-8-pyridin-4-yl-2,3,4,8-tetrahydroimidazo[1,5-a]pyrimidin-6-amine 0.25 acetate] | 150
6 | COc1ccc(F)c(-c2cccc(C3(c4ccncc4)N=C(N)N4CCCN=C43)c2)c1 (stereo not shown) [Example 19, 8-(2′-Fluoro-5′-methoxybiphenyl-3-yl)-8-pyridin-4-yl-2,3,4,8-tetrahydroimidazo[1,5-a]pyrimidin-6-amine 0.25 acetate] | 74
7 | N#Cc1ccc(F)c(-c2cccc(C3(c4ccncc4)N=C(N)N4CCCN=C43)c2)c1 (stereo not shown) [Example 20, 3′-(6-amino-8-pyridin-4-yl-2,3,4,8-tetrahydroimidazo[1,5-a]pyrimidin-8-yl)-6-fluorobiphenyl-3-carbonitrile 0.25 acetate] | 396
8 | N#Cc1cc(-c2cccc(C3(c4ccncc4)N=C(N)N4CCCN=C43)c2)ccc1F (stereo not shown) [Example 22, 3′-(6-amino-8-pyridin-4-yl-2,3,4,8-tetrahydroimidazo[1,5-a]pyrimidin-8-yl)-4-fluorobiphenyl-3-carbonitrile 0.25 acetate] | 418
9 | NC1=NC(c2ccncc2)(c2cccc(-c3cccc(Cl)c3F)c2)C2=NCCCN12 (stereo not shown) [Example 23, 8-(3′-Chloro-2′-fluorobiphenyl-3-yl)-8-pyridin-4-yl-2,3,4,8-tetrahydroimidazo[1,5-a]pyrimidin-6-amine 0.25 acetate] | 99
10 | NC1=NC(c2ccncc2)(c2cccc(-c3cccc(C(F)(F)F)c3)c2)C2=NCCCN12 (stereo not shown) [Example 24, 8-Pyridin-4-yl-8-[3′-(trifluoromethyl)biphenyl-3-yl]-2,3,4,8-tetrahydroimidazo[1,5-a]pyrimidin-6-amine 0.25 acetate] | 390
11 | CS(=O)(=O)c1cccc(-c2cccc(C3(c4ccncc4)N=C(N)N4CCCN=C43)c2)c1 (stereo not shown) [Example 25, 8-[3′-(Methylsulfonyl)biphenyl-3-yl]-8-pyridin-4-yl-2,3,4,8-tetrahydroimidazo[1,5-a]pyrimidin-6-amine 0.25 acetate] | 5080
12 | NC1=NC(c2ccncc2)(c2cccc(-c3cc(Cl)cc(Cl)c3)c2)C2=NCCCN12 (stereo not shown) [Example 26, 8-(3′,5′-Dichlorobiphenyl-3-yl)-8-pyridin-4-yl)-2,3,4,8-tetrahydroimidazo[1,5-a]pyrimidin-6-amine 0.25 acetate] | 25
13 | COc1cc(Cl)cc(-c2cccc(C3(c4ccncc4)N=C(N)N4CCCN=C43)c2)c1 (stereo not shown) [Example 27, 8-(3′-Chloro-5′-methoxybiphenyl-3-yl)-8-pyridin-4-yl-2,3,4,8-tetrahydroimidazo[1,5-a]pyrimidin-6-amine 0.25 acetate] | 66
